According to ChEMBL document CHEMBL5375989, “Pioneering 4,11-Dioxo-4,11-dihydro-1H-anthra[2,3-d]imidazol-3-ium Compounds as Promising Survivin Inhibitors by Targeting ILF3/NF110 for Cancer Therapy” (J Med Chem, 2023):

Key:
[1] = Selectivity index, ratio of IC50 for mouse L929 cells to IC50 for human A549 cells; assay type: toxicity; conditions: for selectivity ratio: L929 cells and A549 cells, read-out: Ratio IC50
[2] = (§1) Antiproliferative activity against mouse L929 cells assessed as inhibition of cell growth measured after 48 hrs by MTT assay; assay type: toxicity, cell-based; conditions: mouse, L929 cells
A549 [3] = test: cells; conditions: Homo sapiens, A549, 48 h
Description: (§2) Antiproliferative activity against human A549 cells assessed as inhibition of cell growth measured after 48 hrs by MTT assay

L929 = test: as §1; assay type: toxicity, cell-based; conditions: l929
A549 [4] = system: A549
Description: as §2

TE-1 = test: cells; conditions: Homo sapiens, TE-1, 48 h
Description: Antiproliferative activity against human TE-1 cells assessed as inhibition of cell growth measured after 48 hrs by MTT assay

5637 = test: cells; conditions: Homo sapiens, 5637, 48 h
Description: Antiproliferative activity against human 5637 cells assessed as inhibition of cell growth measured after 48 hrs by MTT assay

SMILES | IC50 (A549 [3]) [nM] | IC50 (A549 [4]) [nM] | IC50 (TE-1) [nM] | IC50 5637 [nM] | selectivity ratio [1] | IC50 at 48 h [2] [nM] | Ratio IC50 [1] | IC50 (L929) [nM]
Cc1n(C)c2c([n+]1C)C(=O)c1cc3ccccc3cc1C2=O | 50 | – | 50 | 420 | 302 | 15100 | – | –
CCn1c[n+](CC)c2c(OC)ccc(OC)c21 | 13600 | – | – | – | 7 | 95100 | – | –
C[n+]1cn(Cc2ccccc2F)c2c1C(=O)c1cc3ccccc3cc1C2=O | 380 | – | 190 | 470 | – | 17700 | – | –
Cc1n(Cc2cccc(F)c2)c2c([n+]1C)C(=O)c1cc3ccccc3cc1C2=O | 390 | – | 160 | 890 | – | 45900 | – | –
CCC(C)n1c[n+](C)c2c1C(=O)c1cc3ccccc3cc1C2=O (configuration not stated) | 5650 | – | 2330 | 2760 | – | > 100000 | – | –
C[n+]1cn(Cc2ccc(F)cc2)c2c1C(=O)c1cc3ccccc3cc1C2=O | 710 | – | 130 | 520 | – | 41100 | – | –
CCn1c2c([n+](C)c1C)C(=O)c1cc3ccccc3cc1C2=O | 210 | – | 80 | 460 | – | 23300 | – | –
Cc1n(C(C)C)c2c([n+]1C)C(=O)c1cc3ccccc3cc1C2=O | 90 | – | 150 | 60 | – | 17900 | – | –
COc1ccc(Cn2c[n+](C)c3c2C(=O)c2cc4ccccc4cc2C3=O)cc1 | 860 | – | 80 | 800 | – | 64400 | – | –
Cn1c[n+](C)c2c(O)c3c(c(O)c21)C1C=CC3C1 (configuration not stated) | 31500 | – | – | – | 2.7 | 86000 | – | –
O=C1c2ccccc2C(=O)c2c1n(-c1ccccc1)c[n+]2-c1ccccc1 | 76700 | – | – | – | 0.87 | 66900 | – | –
COCCn1c2c([n+](C)c1C)C(=O)c1cc3ccccc3cc1C2=O | 230 | – | 90 | 70 | – | 11000 | – | –
CCc1n(C)c2c([n+]1C)C(=O)c1cc3ccccc3cc1C2=O | 220 | – | – | – | 66 | 14600 | – | –
O=C1c2ccccc2C(=O)c2c1n(Cc1ccccc1)c[n+]2Cc1ccccc1 | 820 | – | – | – | 47.6 | 39000 | – | –
COCC[n+]1c2c(n(Cc3cnccn3)c1C)C(=O)c1cc3ccccc3cc1C2=O | 4500 | – | 910 | 1050 | – | 141000 | – | –
Cc1n(Cc2ccc(F)cc2)c2c([n+]1C)C(=O)c1cc3ccccc3cc1C2=O | 640 | – | 250 | 1360 | – | 76800 | – | –
CC(C)=CCn1c2c([n+](C)c1C)C(=O)c1cc3ccccc3cc1C2=O | 60 | – | 70 | 400 | – | 5520 | – | –
CC(C)=CCn1c[n+](C)c2c1C(=O)c1cc3ccccc3cc1C2=O | 1810 | – | 22000 | 1130 | – | 58700 | – | –

Continued, in another order:

IC50 (A549 [3]) [nM] | IC50 (A549 [4]) [nM] | IC50 (TE-1) [nM] | IC50 5637 [nM] | SMILES | selectivity ratio [1] | IC50 at 48 h [2] [nM] | Ratio IC50 [1] | IC50 (L929) [nM]
80 | – | – | – | Cn1c2c([n+](C)c1C1CC1)C(=O)c1ccccc1C2=O | 78 | 6200 | – | –
160 | – | – | – | CCc1n(C)c2c([n+]1C)C(=O)c1ccccc1C2=O | 35 | 5600 | – | –
60 | – | – | – | CCn1c[n+](CC)c2c1C(=O)c1ccccc1C2=O | 86.7 | 5200 | – | –
– | 400 | – | – | CS(=O)(=O)[O-].Cn1c[n+](C)c2c1C(=O)c1ccccc1C2=O | – | – | 1.8 | 700
90 | – | 90 | 330 | CCCCn1c2c([n+](C)c1C)C(=O)c1cc3ccccc3cc1C2=O | – | 13600 | – | –
920 | – | – | – | Cn1c2c([n+](C)c1-c1ccccc1F)C(=O)c1ccccc1C2=O | 10 | 9200 | – | –
240 | – | 80 | 100 | CCn1c[n+](C)c2c1C(=O)c1cc3ccccc3cc1C2=O | – | 49300 | – | –
650 | – | – | – | CCCn1c[n+](CCC)c2c1C(=O)c1ccccc1C2=O | 15.1 | 9800 | – | –
90 | – | – | – | Cc1n(C)c2c([n+]1C)C(=O)c1ccccc1C2=O | 24 | 2200 | – | –
510 | – | – | – | CCCCn1c[n+](CCCC)c2c1C(=O)c1ccccc1C2=O | 11.8 | 6000 | – | –
– | 170 | – | – | Cn1c[n+](C)c2c1C(=O)c1ccccc1C2=O.F[P-](F)(F)(F)(F)F | – | – | 10.6 | 1800
1870 | – | 770 | 750 | CC(C)Cn1c[n+](C)c2c1C(=O)c1cc3ccccc3cc1C2=O | – | 87400 | – | –
